One test concerns TNFα. Nature of the test: cells. The format is cell-based, human. As to conditions: Homo sapiens, Monocyte, LPS-stimulated human monocytes, TNFα content; read-out: EC50 TNF.
The target in the next test is IRAK4 enzyme (Homo sapiens (Human), UniProt Q9NWZ3). Nature of the test: biochemical. It counts as biochemical. The note with it: IRAK4 enzyme, TR-FRET, 500 μM ATP.

Among the data in US10336762B2 (priority 2017, dated 2019) are EC50 and IC50 values, retold here.

Chain of IRAK4 enzyme (Q9NWZ3 whole entry): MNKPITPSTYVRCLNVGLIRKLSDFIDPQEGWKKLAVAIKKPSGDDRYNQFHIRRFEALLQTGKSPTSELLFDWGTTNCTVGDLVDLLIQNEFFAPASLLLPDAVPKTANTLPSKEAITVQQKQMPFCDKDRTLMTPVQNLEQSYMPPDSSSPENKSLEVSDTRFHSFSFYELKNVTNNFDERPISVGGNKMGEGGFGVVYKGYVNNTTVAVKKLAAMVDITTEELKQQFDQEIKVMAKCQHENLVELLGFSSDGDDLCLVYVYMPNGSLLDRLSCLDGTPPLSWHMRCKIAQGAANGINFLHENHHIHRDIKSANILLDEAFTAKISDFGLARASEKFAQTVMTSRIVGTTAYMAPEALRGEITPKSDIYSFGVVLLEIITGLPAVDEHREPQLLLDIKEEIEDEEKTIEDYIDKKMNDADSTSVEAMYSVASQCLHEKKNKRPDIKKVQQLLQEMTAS

Regarding `CC(C)(O)[C@H](F)CNC(=O)c1cnc(-c2ccc3cc(C#N)cnn23)cc1Nc1ccc(-c2ncco2)cc1` [Example 228, (R)-6-(3-cyanopyrrolo[1,2-b]pyridazin-7-yl)-N-(2-fluoro-3-hydroxy-3-methylbutyl)-4-((4-(oxazol-2-yl)phenyl)amino) nicotinamide], the EC50 in the test with TNFα was 114 nM. Besides, 2 nM corresponded to half-maximal inhibition against IRAK4 enzyme (IC50).
As to `CC(C)(O)[C@H](F)CNC(=O)c1cnc(-c2ccc3cc(C#N)cnn23)cc1Nc1cccnc1F` [Example 229, (R)-6-(3-cyanopyrrolo[1,2-b]pyridazin-7-yl)-N-(2-fluoro-3-hydroxy-3-methylbutyl)-4-((2-fluoropyridin-3-yl)amino)nicotinamide], the EC50 with TNFα was determined as 135 nM. At IRAK4 enzyme, half-maximal inhibition (IC50) was put at 1 nM.
Taken in the same sequence, the figures for `CC(C)(O)[C@H](F)CNC(=O)c1cnc(-c2ccc3cc(C#N)cnn23)cc1Nc1ccc(-c2ncc[nH]2)cc1` [Example 230, (R)-4-((4-(1H-imidazol-2-yl)phenyl)amino)-6-(3-cyanopyrrolo[1,2-b]pyridazin-7-yl)-N-(2-fluoro-3-hydroxy-3-methylbutyl)nicotinamide] were 58 nM and < 1 nM.
`COC(=O)N1CC(n2cc(Nc3cc(-c4ccc5cc(C#N)cnn45)ncc3C(=O)NC[C@@H](F)C(C)(C)O)cn2)C1` [Example 231, (R)-methyl 3-(4-((2-(3-cyanopyrrolo[1,2-b]pyridazin-7-yl)-5-((2-fluoro-3-hydroxy-3-methylbutyl)carbamoyl)pyridin-4-yl)amino)-1H-pyrazol-1-yl)azetidine-1-carboxylate]: the EC50 in the test with TNFα amounted to 61 nM. Besides, the IC50 against IRAK4 enzyme was < 1 nM.
Taken in the same sequence, the figures for `CC(C)(O)[C@H](F)CNC(=O)c1cnc(-c2ccc3cc(C#N)cnn23)cc1Nc1cnn(C2CNC2)c1` [Example 232, (R)-4-((1-(azetidin-3-yl)-1H-pyrazol-4-yl)amino)-6-(3-cyanopyrrolo[1,2-b]pyridazin-7-yl)-N-(2-fluoro-3-hydroxy-3-methylbutyl)nicotinamide] were 425 nM and 1 nM.
`Cc1cncc(Nc2cc(-c3ccc4cc(C#N)cnn34)ncc2C(=O)NC[C@@H](F)C(C)(C)O)c1` [Example 233, (R)-6-(3-cyanopyrrolo[1,2-b]pyridazin-7-yl)-N-(2-fluoro-3-hydroxy-3-methylbutyl)-4-((5-methylpyridin-3-yl)amino)nicotinamide]: in the test on TNFα, the EC50 came out at 170 nM. On IRAK4 enzyme, the midpoint of inhibition, the IC50, lay at 1 nM.
`CC(C)(O)[C@H](F)CNC(=O)c1cnc(-c2ccc3cc(C#N)cnn23)cc1Nc1ccc(-c2c[nH]cn2)cc1` [Example 234, (R)-4-((4-(1H-imidazol-4-yl)phenyl)amino)-6-(3-cyanopyrrolo[1,2-b]pyridazin-7-yl)-N-(2-fluoro-3-hydroxy-3-methylbutyl) nicotinamide]: the half-maximal effective concentration (EC50) with TNFα is 33 nM. In addition, at IRAK4 enzyme, the IC50 was < 1 nM.
Taken in the same sequence, the figures for `COC(=O)N1CCC(n2cc(Nc3cc(-c4ccc5cc(C#N)cnn45)ncc3C(=O)NC[C@@H](F)C(C)(C)O)cn2)CC1` [Example 235, (R)-methyl 4-(4-((2-(3-cyanopyrrolo[1,2-b]pyridazin-7-yl)-5-((2-fluoro-3-hydroxy-3-methylbutyl)carbamoyl)pyridin-4-yl)amino)-1H-pyrazol-1-yl)piperidine-1-carboxylate] were 166 nM and 2 nM.
Taken in the same sequence, the figures for `CC(C)(O)[C@H](F)CNC(=O)c1cnc(-c2ccc3cc(C#N)cnn23)cc1Nc1cnn(C2CCNCC2)c1` [Example 236, (R)-6-(3-cyanopyrrolo[1,2-b]pyridazin-7-yl)-N-(2-fluoro-3-hydroxy-3-methylbutyl)-4-((1-(piperidin-4-yl)-1H-pyrazol-4-yl)amino) nicotinamide] were 379 nM and 1 nM.
For the compound `CC(C)(O)[C@H](F)CNC(=O)c1cnc(-c2ccc3cc(C#N)cnn23)cc1Nc1cnn([C@H]2CCOC2)c1` [Example 237, 6-(3-cyanopyrrolo[1,2-b]pyridazin-7-yl)-N-((R)-2-fluoro-3-hydroxy-3-methylbutyl)-4-((1-((S)-tetrahydrofuran-3-yl)-1H-pyrazol-4-yl)amino) nicotinamide], the EC50 in the test with TNFα amounted to 23 nM. It took 1 nM to reach half-maximal inhibition at IRAK4 enzyme (IC50).
Consider `CC(C)(O)[C@H](F)CNC(=O)c1cnc(-c2ccc3cc(C#N)cnn23)cc1N[C@@H]1CC2CN(C(N)=O)C[C@H]2C1` (stereo partly drawn) [Example 238, (3aR,5s,6aS)-5-((2-(3-cyanopyrrolo[1,2-b]pyridazin-7-yl)-5-(((R)-2-fluoro-3-hydroxy-3-methylbutyl)carbamoyl)pyridin-4-yl)amino)hexa-hydrocyclopenta[c]pyrrole-2(1H)-carboxamide], for which the EC50 in the test with TNFα is 225 nM. The IC50 at IRAK4 enzyme was < 1 nM.
Taken in the same sequence, the figures for `CC(C)(O)[C@H](F)CNC(=O)c1cnc(-c2ccc3cc(C#N)cnn23)cc1Nc1cnn([C@@H]2CCOC2)c1` [Example 239, 6-(3-cyanopyrrolo[1,2-b]pyridazin-7-yl)-N-((R)-2-fluoro-3-hydroxy-3-methylbutyl)-4-((1-((R)-tetrahydrofuran-3-yl)-1H-pyrazol-4-yl)amino) nicotinamide] were 24 nM and < 1 nM.
`CC(C)(O)[C@H](F)CNC(=O)c1cnc(-c2ccc3cc(C#N)cnn23)cc1N[C@@H]1CNCCC1(F)F` [Example 240, 6-(3-cyanopyrrolo[1,2-b]pyridazin-7-yl)-4-(((R)-4,4-difluoropiperidin-3-yl)amino)-N-((R)-2-fluoro-3-hydroxy-3-methylbutyl) nicotinamide]: the EC50 with TNFα was found to be 27 nM. On IRAK4 enzyme, this compound registered an IC50 of 1 nM.
Consider `CC(=O)NCc1ccc(Nc2cc(-c3ccc4cc(C#N)cnn34)ncc2C(=O)NC[C@@H](F)C(C)(C)O)cc1` [Example 241, (R)-4-((4-(acetamidomethyl)phenyl)amino)-6-(3-cyanopyrrolo[1,2-b]pyridazin-7-yl)-N-(2-fluoro-3-hydroxy-3-methylbutyl)nicotinamide], for which the EC50 in the test on TNFα worked out at 16 nM. Besides, the half-maximal inhibitory concentration (IC50) against IRAK4 enzyme is < 1 nM.
`COC(=O)N1CCC(Nc2cc(-c3ccc4cc(C#N)cnn34)ncc2C(=O)NC[C@@H](F)C(C)(C)O)CC1` [Example 242, (R)-methyl 4-((2-(3-cyano-pyrrolo[1,2-b]pyridazin-7-yl)-5-((2-fluoro-3-hydroxy-3-methylbutyl)carbamoyl)pyridin-4-yl)amino)piperidine-1-carboxylate]: the EC50 in the test on TNFα is 191 nM. The IC50 on IRAK4 enzyme was found to be 2 nM.
In the case of `CN(C)C(=O)N1CCC(Nc2cc(-c3ccc4cc(C#N)cnn34)ncc2C(=O)NC[C@@H](F)C(C)(C)O)CC1` [Example 243, (R)-6-(3-cyanopyrrolo[1,2-b]pyridazin-7-yl)-4-((1-(dimethylcarbamoyl)piperidin-4-yl)amino)-N-(2-fluoro-3-hydroxy-3-methylbutyl)nicotinamide], the EC50 with TNFα worked out at 218 nM. At IRAK4 enzyme, the IC50 came out at 2 nM.
Taken in the same sequence, the figures for `CN(C)S(=O)(=O)N1CCC(Nc2cc(-c3ccc4cc(C#N)cnn34)ncc2C(=O)NC[C@@H](F)C(C)(C)O)CC1` [Example 244, (R)-6-(3-cyanopyrrolo[1,2-b]pyridazin-7-yl)-4-((1-(N,N-dimethylsulfamoyl)piperidin-4-yl)amino)-N-(2-fluoro-3-hydroxy-3-methylbutyl) nicotinamide] were 102 nM and 1 nM.
